Consider three compounds from patent US20240082282A1 (priority 2020, published 2024).

Experiment [1] deals with Bacteroides ovatus KLE 2306. The experiment is classed as cell-based. Particulars: KLE2306; Bacteroides ovatus KLE 2306, anaerobic, stool isolate; read-out: Minimum inhibitory concentration (MIC).
The subject of experiment [2] is B. burgdorferi N40. Nature of the experiment: Mouse infection model (IP injection, oral gavage). Particulars: for Culture positive (%): C3H, 5 days, whole ear culture.
The subject of experiment [3] is Bacteroides vulgatus KLE 2381. The experiment is classed as cell-based. To be noted: Phocaeicola vulgatus, KLE2381; Bacteroides vulgatus KLE 2381, anaerobic, stool isolate; read-out: Minimum inhibitory concentration (MIC).
The subject of experiment [4] is Brevinema andersonii ATCC 43811. To be noted: Brevinema andersonii, ATCC43811, read-out: Minimum inhibitory concentration (MIC).
For experiment [5], the system named is Parabacteroides merdae KLE 2238. The class given is cell-based. To be noted: KLE2238; Parabacteroides merdae KLE 2238, anaerobic, stool isolate; read-out: Minimum inhibitory concentration (MIC).
In experiment [6] the test system is Lactobacillus reuteri ATCC 23272. The experiment is classed as cell-based. To be noted: Limosilactobacillus reuteri, ATCC23272; Lactobacillus reuteri ATCC 23272, anaerobic; read-out: Minimum inhibitory concentration (MIC).
Experiment [7] has as its system Borreliella burgdorferi N40. Particulars: Borreliella burgdorferi, N40, read-out: Minimum inhibitory concentration (MIC).
The subject of experiment [8] is Enterobacter cloacae ATCC 13047. The experiment is classed as cell-based. To be noted: ATCC13047; Enterobacter cloacae ATCC 13047, anaerobic; read-out: Minimum inhibitory concentration (MIC).
Experiment [9] deals with B. burgdorferi N40. Nature of the experiment: Bait experiment in infected mice. The class given is in vivo, C3H mice. As for the experimental part: Mice were infected with B. burgdorferi.
To prepare the mouse bait, 2 g of Bait formulation 3 (Food source), 0.5 g freshly ground peanut butter (Whole foods), 35 μl of green food coloring mix (Whole foods) were added into a 60 mm Petri dish. Boiling water (4 mL) was added and mixed with a spatula. The mixture was then dispensed into wells of a 96 well plate with a spatula such that about ⅔rd of the well was full. Antibiotics or vehicle were added at appropriate volume and mixed with a pipette tip. Added volume was kept below 60 μL per well. The bait was allowed to air dry/solidify for a few hours and the prepared baits were stored at 4° C. until use.
To ensure that the bait would be consumed, mice were housed individually with their mouse chow withheld during treatment. The doses used in mice were matched to the pharmacokinetic profile of humans given ceftriaxone 1 g every 12 hours (Sai Life Sciences Ltd, India) and doxycycline 100 mg every 12 hours.
Skin was used for liquid culture, and RNA extraction. All other tissues were used for RNA extraction. The growth of B. burgdorferi in 10 day liquid cultures was detected by dark field microscopy with a 100× objective.

Another experiment deals with Borreliella miyamotoi. To be noted: Borreliella, read-out: Minimum inhibitory concentration (MIC).
Experiment [10] concerns Streptococcus sanguinis KLE 2374. The experiment is classed as cell-based. To be noted: KLE2374; Streptococcus sanguinis KLE 2374, anaerobic, stool isolate; read-out: Minimum inhibitory concentration (MIC).
The test system of the next experiment is Escherichia coli MG1655. The class given is cell-based. Particulars: read-out: Minimum inhibitory concentration (MIC).
For experiment [11], the system named is Staphylococcus aureus HG003. The experiment is classed as cell-based. Particulars: Staphylococcus aureus HG003; read-out: Minimum inhibitory concentration (MIC).
In experiment [12] the test system is B. burgdorferi overexpressing bmpD (Bb1286+pJSB275m_bmpD). Kind of experiment: MIC of B. burgdorferi overexpressing bmpD. The experiment is classed as cell-based. Particulars: normalized to wild-type B. burgdorferi, IPTG-independent.
[13] abbreviates: 100 mg/kg, bait once a day for 5 days.
The mark [14] stands for this setting: 156 mg/kg, IP injection, twice a day for 5 days.

In brackets after ≈: the same amount, converted by molar mass.

Turning to `C[C@H]1c2cccc(O)c2C(=O)C2=C(O)[C@]3(O)C(=O)C(C(N)=O)=C(O)[C@@H](N(C)C)[C@@H]3[C@@H](O)[C@@H]21` [Doxycycline], the MIC in [1] turned out to be 0.01 µg/mL (≈ 0.0225 µM); in experiment [3] it was 1 µg/mL (≈ 2.25 µM); in [4], 0.12 µg/mL (≈ 0.27 µM); in experiment [5], 0.06 µg/mL (≈ 0.135 µM); in experiment [6], 8 µg/mL (≈ 18 µM); in experiment [7], 0.25 µg/mL (≈ 0.563 µM). The MIC in experiment [8] came out at 8 µg/mL (≈ 18 µM); with Borreliella miyamotoi, 0.12 µg/mL (≈ 0.27 µM); in experiment [10], 0.25 µg/mL (≈ 0.563 µM); in the experiment on Escherichia coli MG1655, 2 µg/mL (≈ 4.5 µM); in [11] it was 0.12 µg/mL (≈ 0.27 µM). The “Culture positive (%)” value in the experiment with B. burgdorferi N40 [2] (oral gavage, daily dose 100 mg/kg/day) was 0%; with B. burgdorferi N40 [9] (C3H, bait, daily dose 200 mg/kg/day, 5 days, whole ear culture), 0%. Besides, the “B. burgdorferi culture (% positive)” value in the experiment on B. burgdorferi N40 [9] (setting [13]) was found to be 0%. In addition, in the experiment with B. burgdorferi N40 [9] (setting [13]), the “Mean # of B. burgdorferi/10 mg of skin tissue (qPCR)” value is given as <1 B. burgdorferi/10 mg of skin t.

For the compound `CO/N=C(\C(=O)N[C@@H]1C(=O)N2C(C(=O)O)=C(CSc3nc(=O)c(=O)[nH]n3C)CS[C@H]12)c1csc(N)n1` [Ceftriaxone], the MIC worked out at 0.02 µg/mL (≈ 0.0361 µM) in [1]; 128 µg/mL (≈ 231 µM) in experiment [3]; 0.01 µg/mL (≈ 0.018 µM) in [4]; 0.25 µg/mL (≈ 0.451 µM) in experiment [5]; 32 µg/mL (≈ 57.7 µM) in [6]; 0.01 µg/mL (≈ 0.018 µM) in experiment [7]. Moreover, the MIC is 64 µg/mL (≈ 115 µM) in experiment [8]; 0.01 µg/mL (≈ 0.018 µM) with Borreliella miyamotoi; 0.12 µg/mL (≈ 0.216 µM) in [10]; 0.06 µg/mL (≈ 0.108 µM) in the experiment on Escherichia coli MG1655; 8 µg/mL (≈ 14.4 µM) in experiment [11]. The “B. burgdorferi culture (% positive)” value in the experiment with B. burgdorferi N40 [2] (setting [14]) was 0%. Moreover, in the experiment on B. burgdorferi N40 [2] (setting [14]), the “Mean # of B. burgdorferi/10 mg of skin tissue (qPCR)” value is given as <1 B. burgdorferi/10 mg of skin t. Besides, the “Culture positive (%)” value in the experiment on B. burgdorferi N40 [2] (intraperitoneal injection, daily dose 312 mg/kg/day) is 0%. The results for the “Change of MIC on overexpression of bmpD in B. burgdorferi” value in experiment [12] and in [12] (listed as ceftriaxone) were “no effect” and “remained unchanged”, respectively.

For the compound `CC1(C)S[C@@H]2[C@H](NC(=O)[C@H](N)c3ccc(O)cc3)C(=O)N2[C@H]1C(=O)O` [Amoxicillin], the MIC came to 0.5 µg/mL (≈ 1.37 µM) in [1]; 128 µg/mL (≈ 350 µM) in experiment [3]; 0.12 µg/mL (≈ 0.328 µM) in experiment [4]; 1 µg/mL (≈ 2.74 µM) in experiment [5]; 4 µg/mL (≈ 10.9 µM) in [6]; 0.12 µg/mL (≈ 0.328 µM) in experiment [7]. Further, the MIC was over 128 µg/mL in experiment [8]; 0.12 µg/mL (≈ 0.328 µM) in the experiment with Borreliella miyamotoi; 2 µg/mL (≈ 5.47 µM) in [10]; 16 µg/mL (≈ 43.8 µM) with Escherichia coli MG1655; 1 µg/mL (≈ 2.74 µM) in [11]. In addition, the “Culture positive (%)” value in the experiment on B. burgdorferi N40 [2] (oral gavage, daily dose 200 mg/kg/day) is 0%.
